Data from patent US20200216432A1, “SULFONAMIDE DERIVATIVES AS STAT3 INHIBITORS FOR THE TREATMENT OF PROLIFERATIVE DISEASES” (King's College London, priority 2017, published 2020).
Square brackets hold non-standard residues; d marks the D form. Peptide text beside a SMILES is read from it. pY = N[C@@H](Cc1ccc(OP(=O)(O)O)cc1)C(=O)O

How the values were obtained:
[1] = target: unphosphorylated STAT3 monomer (uSTAT3) SH2 domain (Homo sapiens, UniProt P40763); assay: Fluorescence polarisation assay for the inhibition of STAT3 dimerisation; assay type: binding; settings: 350 nM uSTAT3, 10 nM FAM-pYLPQTV, 100 μM ligand; average of triplicate
unphosphorylated STAT3 monomer (uSTAT3) SH2 domain, sequence (P40763 whole entry, the tested form may be a part): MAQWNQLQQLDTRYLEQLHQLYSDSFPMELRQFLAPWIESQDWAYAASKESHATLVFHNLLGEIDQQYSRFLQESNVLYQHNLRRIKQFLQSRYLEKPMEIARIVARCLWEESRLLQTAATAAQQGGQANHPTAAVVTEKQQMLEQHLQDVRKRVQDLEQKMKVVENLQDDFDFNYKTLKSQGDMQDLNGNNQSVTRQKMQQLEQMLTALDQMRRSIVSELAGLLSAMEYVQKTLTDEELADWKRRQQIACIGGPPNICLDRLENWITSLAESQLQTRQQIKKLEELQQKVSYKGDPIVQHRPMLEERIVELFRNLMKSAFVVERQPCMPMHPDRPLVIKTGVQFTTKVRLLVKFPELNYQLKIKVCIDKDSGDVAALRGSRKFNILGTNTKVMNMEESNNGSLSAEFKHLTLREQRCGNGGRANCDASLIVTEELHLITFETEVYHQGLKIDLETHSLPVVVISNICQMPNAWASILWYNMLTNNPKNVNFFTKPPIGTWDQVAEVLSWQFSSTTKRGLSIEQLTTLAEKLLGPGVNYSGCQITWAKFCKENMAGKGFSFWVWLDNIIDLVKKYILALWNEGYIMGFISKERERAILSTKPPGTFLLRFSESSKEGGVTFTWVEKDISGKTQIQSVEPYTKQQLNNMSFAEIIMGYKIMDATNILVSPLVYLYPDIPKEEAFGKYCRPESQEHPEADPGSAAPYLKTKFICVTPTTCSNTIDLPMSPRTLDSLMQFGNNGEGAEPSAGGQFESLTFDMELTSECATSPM
Description: Fluorescence Polarisation Assay for the Inhibition of STAT3 Dimerisation
The compounds were subjected to an in vitro fluorescent polarisation (FP)-based primary PPI binding screen to assess their ability to inhibit STAT3 dimerisation by interacting with the SH2 domain. In this FP assay, the unphosphorylated STAT3 monomer (uSTAT3) and a surrogate peptide FAM-pYLPQTV were used to form a ‘pseudo-dimer’. The assay is based on the concept that the compounds were expected to displace the surrogate peptide from the uSTAT3 resulting in a fluorescent read out.
Specifically, for the FP assay, a black (CORNING™) 96 well plate was thoroughly washed with distilled water and allowed to dry. A 100 nM FAM-pYLPQTV working solution was prepared from 10 μM FAM-pYLPQTV stock solution (in DMSO) using PBS pH 7.4 Buffer. 10 μl FAM-pYLPQTV was added to 350 nM uSTAT3 protein, the final concentration of protein in each well, in 90 μl PBS buffer pH 7.4. The MP value of the surrogate dimer complex was measured using a fluorescent plate reader (Envision™, Perkin Elmer™, USA), which provided the base MP value. The inhibitor solution was then added to the well and the assay plate was placed on a shaker for 5 minutes. The MP value for each well was then measured again. A shift in fluorescent values was observed due to displacement of the fluorescently-labelled surrogate peptide by the inhibitors, and the average inhibition for each inhibitor could be calculated as described below:
Base MP value (X) for each well=MP value of Protein and Probe (350 nm STAT3+10 nM FAM-pYLPQTV)−MP value of free FAM-pYLPQTV
Inhibitor MP value (Y) for each well=MP value of Protein+Probe+Inhibitor (350 nm uSTAT3+10 nM FAM-pYLPQTV+2 μL Inhibitor)−MP value of free FAM-pYLPQTV with 2 μL DMSO
% inhibition by any ligand/peptide=(X−Y)/X*100
For comparison purpose, the % inhibition produced by 100 μM pYLKTKF was considered to be 100%, and the inhibition produced by different ligands was reported as relative to 100 μM pYLKTKF.
% Inhibition produced by 100 μM pYLKTKF=A
% Inhibition produced by 100 μM Ligand=B
Relative inhibition (%)=B/A*100
The experiment was carried out in triplicate, and average values were taken as the measure of PPI inhibition.

[2] = tested on: MDA-MB-231 breast (STAT3-dependent) cancer cell line; assay: MTT cell viability assay, MDA-MB-231; assay type: cell-based, human; settings: for IC50: MTT, 48 hours exposure (table title); for Selectivity ratio: STAT3-null A4 versus STAT3-dependent MDA-MB-231
Description: (§1) MTT Cell viability assay with both MDA-MB-231 breast (STAT3-dependent) and A4 (STAT3-null) cancer cell lines.
(§2) After observing significant STAT3 dimerisation inhibitory activity in the preliminary FP assay, the target ligand and related fragments were progressed to an MTT cytotoxicity assay to evaluate in a STAT3-dependent tumour cell line (MDA MB 231, breast cancer) and a STAT3 null A4 cell line. It was anticipated that the compounds would show selective toxicity towards the STAT3-dependent MDA MB 231 cell line and would have lost activity in the STAT3 null A4 cell line if the mechanism of action was STAT3-mediated.
(§3) For each cell line, a total of 10,000 cells were seeded for 24 hours before addition of the inhibitors. The cells were grown in normal cell culture conditions at 37° C. under a 5% CO2 humidified atmosphere using an appropriate medium. The cell count was adjusted to 10^5 cells/ml, and 5,000-20,000 cells were added per well depending on the cell line. The cells were then incubated for 24 hours, and 1 μl aliquots of the inhibitors were added to the wells in triplicate. […] Absorbance was quantified by spectrophotometry at A=570 nm (Envision™ Plate Reader, PerkinElmer™, USA). IC50 values were calculated by a dose-response analysis using the Prism GraphPad Prism® software package.

[3] = tested on: A4 (STAT3-null) cancer cell line; assay: MTT cell viability assay, A4; assay type: cell-based
Description: as §1, §2, §3

[4] = 48 hours exposure (table title)

Row | SMILES | inhibition at 100 µM [1] | IC50 ([2]; Homo sapiens, MDA-MB-231, 48 h) | Selectivity ratio [2] | IC50 ([3]; exposure (table title)) | % Inhibition [1] | IC50 [2] | IC50 [3, 4] | cytotoxicity in the MTT assay ([2]; highest concentration (100 μM) evaluated)
1 | COC(=O)c1ccc(N(C)S(=O)(=O)c2cc(C(=O)NCc3ccc(N4CCN(C)CC4)cc3)sc2Br)cc1 [Compound 32, methyl 4-((2-bromo-N-methyl-5-((4-(4-methylpiperazin-1-yl)benzyl)carbamoyl)thiophene)-3-sulfonamido)benzoate] | 6.18% | 7.65 µM | 9.73 | 74.5 µM | – | – | – | –
2 | COC(=O)c1ccc(N(C)S(=O)(=O)c2cc(C(=O)Nc3ccc(OCCN4CCOCC4)cc3)sc2Br)cc1 [Compound 29, methyl 4-((2-bromo-N-methyl-5-((4-(2-morpholinoethoxy)phenyl)carbamoyl)thiophene)-3-sulfonamido)benzoate] | – | – | – | – | 42.90% | 5.8 µM | 53.6 µM | –
3 | COC(=O)c1ccc(N(C)S(=O)(=O)c2cc(C(=O)NCc3ccc(CN4CCCCC4)cc3)sc2-c2ccc(N3CCCCC3)cc2)cc1 [Compound 2, methyl 4-((N-methyl-2-(4-(piperidin-1-yl)phenyl)-5-((4-(piperidin-1-ylmethyl)benzyl)carbamoyl)thiophene)-3-sulfonamido)benzoate] | 51.2% | 2.12 µM | 39.76 | 84.3 µM | – | – | – | –
4 | COC(=O)c1ccc(N(C)S(=O)(=O)c2cc(C(=O)NCc3ccc(CN4CCCCC4)cc3)sc2-c2ccc(C(=O)N3CCN(C)CC3)cc2)cc1 [Compound 7, methyl 4-((N-methyl-2-(4-(4-methylpiperazine-1-carbonyl)phenyl)-5-((4-(piperidin-1-ylmethyl)benzyl)carbamoyl)thiophene)-3-sulfonamido)benzoate] | 40.6% | 6.5 µM | 10.01 | 65.1 µM | – | – | – | –
5 | COC(=O)c1ccc(N(C)S(=O)(=O)c2cc(C(=O)Nc3ccc(OCCN4CCOCC4)cc3)sc2-c2ccnc(N3CCNCC3)c2)cc1 [Compound 14, methyl 4-((N-methyl-5-((4-(2-morpholinoethoxy)phenyl)carbamoyl)-2-(2-(piperazin-1-yl)pyridin-4-yl)thiophene)-3-sulfonamido)benzoate] | 33.3% | 14.5 µM | 5.40 | 78.4 µM | – | – | – | –
6 | COC(=O)c1ccc(N(C)S(=O)(=O)c2cc(C(=O)NCc3ccc(OCCN4CCOCC4)cc3)sc2Br)cc1 [Compound 25, methyl 4-((2-bromo-N-methyl-5-((4-(2-morpholinoethoxy)benzyl)carbamoyl)thiophene)-3-sulfonamido)benzoate] | – | – | – | – | 49.62% | 3.6 µM | 43.6 µM | –
7 | COC(=O)c1ccc(N(C)S(=O)(=O)c2cc(C(=O)Nc3ccc(OCCN4CCOCC4)cc3)sc2-c2ccc(N3CCN(C)CC3)nc2)cc1 [Compound 11, methyl 4-((N-methyl-2-(6-(4-methylpiperazin-1-yl)pyridin-3-yl)-5-((4-(2-morpholinoethoxy)phenyl)carbamoyl)thiophene)-3-sulfonamido)benzoate] | 58.3% | 7.51 µM | 8.84 | 66.4 µM | – | – | – | –
8 | COC(=O)c1ccc(N(C)S(=O)(=O)c2cc(C(=O)Nc3ccc(OCCN4CCOCC4)cc3)sc2-c2ccc(C(=O)N3CCOCC3)cc2)cc1 [Compound 12, methyl 4-((N-methyl-2-(4-(morpholine-4-carbonyl)phenyl)-5-((4-(2-morpholinoethoxy)phenyl)carbamoyl)thiophene)-3-sulfonamido)benzoate] | 59.4% | 3.91 µM | 19.28 | 75.4 µM | – | – | – | –
9 | COC(=O)c1ccc(N(C)S(=O)(=O)c2cc(C(=O)Nc3ccc4c(ccn4Cc4ccccc4)c3)sc2-c2ccc(N3CCCCC3)cc2)cc1 [Compound 20, methyl 4-((5-((1-benzyl-1H-indol-5-yl)carbamoyl)-N-methyl-2-(4-(piperidin-1-yl)phenyl)thiophene)-3-sulfonamido)benzoate] | 35.6% | 10.5 µM | 5.62 | 58.8 µM | – | – | – | –
10 | COC(=O)c1ccc(N(C)S(=O)(=O)c2cc(C(=O)Nc3ccc(OCCN4CCOCC4)cc3)sc2-c2ccc(C(=O)N3CCN(C)CC3)cc2)cc1 [Compound 15, methyl 4-((N-methyl-2-(4-(4-methylpiperazine-1-carbonyl)phenyl)-5-((4-(2-morpholinoethoxy)phenyl)carbamoyl)thiophene)-3-sulfonamido)benzoate] | 40.6% | 10.1 µM | 8.45 | 84.5 µM | – | – | – | –
11 | COC(=O)c1ccc(N(C)S(=O)(=O)c2cc(C(=O)NCc3ccc(N4CCOCC4)cc3)sc2Br)cc1 [Compound 24, methyl 4-((2-bromo-N-methyl-5-((4-morpholinobenzyl)carbamoyl)thiophene)-3-sulfonamido)benzoate] | 9.42% | 34.5 µM | 0.96 | 33.2 µM | – | – | – | –
12 | COC(=O)c1ccc(N(C)S(=O)(=O)c2cc(C(=O)Nc3cccc(-c4csc(C)n4)c3)sc2Br)cc1 [Compound 38, methyl 4-((2-bromo-N-methyl-5-((3-(2-methylthiazol-4-yl)phenyl)carbamoyl)thiophene)-3-sulfonamido)benzoate] | 29.2% | 11.6 µM | 4.67 | 54.1 µM | – | – | – | –
13 | COC(=O)c1ccc(N(C)S(=O)(=O)c2cc(C(=O)NCc3ccc(CN4CCCCC4)cc3)sc2-c2ccnc(N3CCN(C)CC3)c2)cc1 [Compound 5, methyl 4-((N-methyl-2-(2-(4-methylpiperazin-1-yl)pyridin-4-yl)-5-((4-(piperidin-1-ylmethyl)benzyl)carbamoyl)thiophene)-3-sulfonamido)benzoate] | 46.9% | 2.43 µM | 23.62 | 57.4 µM | – | – | – | –
14 | COC(=O)c1ccc(N(C)S(=O)(=O)c2cc(C(=O)NCc3ccc(CN4CCCC4)cc3)sc2Br)cc1 [Compound 37, methyl 4-((2-bromo-N-methyl-5-((4-(pyrrolidin-1-ylmethyl)benzyl)carbamoyl)thiophene)-3-sulfonamido)benzoate] | 30.2% | 5.64 µM | 9.85 | 55.6 µM | – | – | – | –
15 | COC(=O)c1ccc(N(C)S(=O)(=O)c2cc(C(=O)Nc3ccc(N4CCN(C(=O)c5cc6ccccc6o5)CC4)cc3)sc2Br)cc1 [Compound 39, methyl 4-((5-((4-(4-(benzofuran-2-carbonyl)piperazin-1-yl)phenyl)carbamoyl)-2-bromo-N-methylthiophene)-3-sulfonamido)benzoate] | – | – | – | – | 36.44% | 4.8 µM | 43.2 µM | –
16 | COC(=O)c1ccc(N(C)S(=O)(=O)c2cc(C(=O)Nc3ccc4c(ccn4Cc4ccccc4)c3)sc2Br)cc1 [Compound 40, methyl 4-((5-((1-benzyl-1H-indo1-5-yl)carbamoyl)-2-bromo-N-methylthiophene)-3-sulfonamido)benzoate] | 47.1% | – | – | – | – | – | – | –
17 | CC(C)C[C@H](NC(=O)[C@@H](N)Cc1ccc(OP(=O)(O)O)cc1)C(=O)N[C@@H](CCCCN)C(=O)N[C@H](C(=O)N[C@@H](CCCCN)C(=O)N[C@@H](Cc1ccccc1)C(=O)O)[C@@H](C)O [pYLKTKF, reference compound] (H-[pY]LKTKF-OH) | 41.6% | – | – | – | – | – | – | did not show any cytotoxicity
